Assays:
[1] = biological target: T1, hSOS1 mediated nucleotide exchange on hKRASG12C (Homo sapiens, UniProt Q07889); experiment: biochemical
T1 sequence (Q07889 564-1049): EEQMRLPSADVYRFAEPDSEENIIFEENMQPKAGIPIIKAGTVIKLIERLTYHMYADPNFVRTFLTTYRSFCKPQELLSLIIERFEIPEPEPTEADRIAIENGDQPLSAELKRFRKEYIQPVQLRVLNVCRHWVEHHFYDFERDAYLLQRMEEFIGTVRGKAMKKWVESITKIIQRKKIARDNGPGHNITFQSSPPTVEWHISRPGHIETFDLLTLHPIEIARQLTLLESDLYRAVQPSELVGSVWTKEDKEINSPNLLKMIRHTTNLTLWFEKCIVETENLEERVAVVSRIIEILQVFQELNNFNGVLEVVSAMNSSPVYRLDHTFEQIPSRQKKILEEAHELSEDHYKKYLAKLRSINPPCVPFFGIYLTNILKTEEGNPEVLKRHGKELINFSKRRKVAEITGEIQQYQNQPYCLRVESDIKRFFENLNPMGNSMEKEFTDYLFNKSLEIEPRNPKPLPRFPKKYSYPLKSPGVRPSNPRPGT
Procedure: Example-127: Guanine Nucleotide Exchange Assay (GNEA)
GNEA assay was conducted to evaluate the effects of compounds on the nucleotide exchange on hKRASG12C mediated by hSOS1. Inhibitory effect of compounds on HIS-hSOS1, 564-1049aa mediated GTP loading onto GST-hKRASG12C, 1-169aa both expressed and purified in-house was assessed using HTRF detection technology in biochemical assay. Compounds were pre-incubated with hSOS1 working solution containing 10-50 nM hSOS1 and 200 nM EDA-GTP-DY-647P1 (Custom manufactured, Jena Biosciences) per well of a 384 well plate (Perkin Elmer, Cat #6007290) for 10 min at 20° C. in the assay buffer containing 10 mM HEPES, pH 7.4, 150 mM NaCl, 5 mM MgCl2, 1 mM DTT, 0.05% BSA fraction V and 0.0025% Igepal. Reaction was initiated by adding working solution of hKRASG12C containing 25-125 nM hKRASG12C and MAb Anti-GST-Tb (#61GSTTLA, Cisbio BioAssays) in assay buffer. Total assay volume was 15 μL. Reaction was continued for 30-60 min at 20° C. HTRF signal was recorded in PHERAStar microplate reader. Ratio of signal obtained at 665 nm and 620 nm was used to compute the percent inhibition of compound as follows.
Where, Positive control=hSOS1+EDA-GTP-DY-647P1+hKRASG12C+MAb Anti-GST-Tb Negative control=EDA-GTP-DY-647P1+hKRASG12C+MAb Anti-GST-Tb

[2] = system: pERK in DLD1 cells; experiment: ERK phosphorylation assay after EGF stimulation; type: cell-based; conditions: Homo sapiens, DLD-1, compound 2 h, 200 ng/ml hEGF 5 minutes, alphascreen pERK, read-out: ERK phosphorylation inhibition IC50
Procedure: Example-128: ERK Phosphorylation Assay Protocol
Compounds were tested for their ability to inhibit pERK after EGF stimulation in DLD1 cells. Cells were seeded at 0.2 million cells per well in 96 well cell binding tissue culture plate in 100 μL complete media and were allowed to settle overnight (16 to 20 h). On the following day, cells were treated with various concentrations of test compounds for 2 h followed by stimulation with 200 ng/ml hEGF (diluted in PBS) for 5 minutes. Cells were then washed once with PBS and lysed in freshly prepared lysis buffer (provided with alphascreen surefire ERK1/2 p-T202/Y204 assay kit, cat no: TGRESB10K, Perkin Elmer). Lysis was carried out in plate shaker for 10-15 mins. Lysate was transferred to […] white opti-plate (Perkin Elmer) and alphascreen for pERK was carried out as per manufacturer's instructions. Plate was read after 2 h incubation in plate shaker at […] 300 RPM, 25-28° C.

[3] = biological target: T2, hSOS1 and hKRASG12C (Homo sapiens, UniProt Q07889); experiment: biochemical
T2 sequence (Q07889 564-1049): T1 sequence (Q07889 564-1049)
Procedure: Interaction assay was conducted to evaluate the ability of the compounds to disrupt the protein-protein interactions between hSOS1 and hKRASG12C. Inhibitory effect of compounds on GST-hSOS1, 564-1049aa expressed and purified in-house and HIS-hKRASG12C (R06-32DH, SignalChem) interaction was assessed using HTRF detection technology in biochemical assay. Compounds were pre-incubated with 10-50 nM working solution of hSOS1 per well of a 384 well plate (Perkin Elmer, Cat #6007290) for 10 min at 20° C. in the assay buffer containing 5 mM HEPES, pH 7.4, 150 mM NaCl, 10 mM EDTA, 1 mM DTT, 0.05% BSA fraction V and 0.0025% Igepal. Reaction was initiated by adding 100-300 nM working solution of hKRASG12C in assay buffer. Total assay volume was 15 μL. Reaction was continued for 30-60 min at 20° C. Then detection solution containing MAb Anti-GST-d2 (#61GSTDLA, Cisbio BioAssays) and MAb Anti-HIS-Tb (#61HISTLA, Cisbio BioAssays), all prepared in HTRF detection buffer (#61DB10RDF, Cisbio BioAssays) was added and further incubated for 30-60 min at 20° C. HTRF signal was recorded in PHERAStar microplate reader. Ratio of signal obtained at 665 nm and 620 nm was used to compute the percent inhibition of compound utilizing the following formula:
Positive control=hSOS1+hKRASG12C+MAb Anti-GST-d2+Mab Anti-HIS-Tb Negative control=hKRASG12C+MAb Anti-GST-d2+MAb Anti-HIS-Tb

COCC1(O)CCN(c2cc3c(N[C@H](C)c4cccc(C(F)(F)[C@@H](C)O)c4F)nc(C)nc3c3c2CCC3)CC1 (single isomer, unassigned) [Compound 72b]
IC50 [1]: 1 to 30 nM | IC50 [2]: 1 to 200 nM | IC50 [3]: 1 to 10 nM

COCC(F)(F)c1cccc([C@@H](C)Nc2nc(C)nc3c4c(c(N5CC6(COC6)C5)cc23)CCC4)c1F [Compound 24, (R)—N-(1-(3-(1,1-difluoro-2-methoxyethyl)-2-fluorophenyl)ethyl)-2-methyl-6-(2-oxa-6-azaspiro[3.3]heptan-6-yl)-8,9-dihydro-7H-cyclopenta[h]quinazolin-4-amine]
IC50 [1]: 31 to 70 nM | IC50 [2]: 1 to 200 nM | IC50 [3]: 1 to 10 nM

Cc1nc(N[C@H](C)c2cccc(C(F)(F)C(C)(C)O)c2F)c2cc(N3CCC(O)(CO)CC3)c3c(c2n1)CCC3 [Compound 85, (R)-1-(4-((1-(3-(1,1-difluoro-2-hydroxy-2-methylpropyl)-2-fluorophenyl)ethyl)amino)-2-methyl-8,9-dihydro-7H-cyclopenta[h]quinazolin-6-yl)-4-(hydroxymethyl) piperidin-4-ol]
IC50 [1]: 1 to 30 nM | IC50 [2]: 1 to 200 nM | IC50 [3]: 1 to 10 nM

Cc1nc(N[C@H](C)c2cc(N)cc(C(F)(F)F)c2)c2cc(N3CCN(C)CC3)c3c(c2n1)CCC3 [Compound 46, (R)—N-(1-(3-amino-5-(trifluoromethyl)phenyl)ethyl)-2-methyl-6-(4-methylpiperazin-1-yl)-8,9-dihydro-7H-cyclopenta[h]quinazolin-4-amine]
IC50 [3]: 1 to 10 nM

Cc1nc(N[C@H](C)c2cccc(C(F)(F)CO)c2F)c2cc(N3CCOCC3)c3c(c2n1)CCC3 [Compound 75, (R)-2,2-difluoro-2-(2-fluoro-3-(1-((2-methyl-6-morpholino-8,9-dihydro-7H-cyclopenta[h]quinazolin-4-yl)amino)ethyl)phenyl)ethan-1-ol]
IC50 [1]: 1 to 30 nM | IC50 [2]: 1 to 200 nM | IC50 [3]: 1 to 10 nM

Cc1nc(N[C@H](C)c2cccc(C(F)(F)C(C)(C)O)c2F)c2cc(N3CCC(O)CC3)c3c(c2n1)CCC3 [Compound 65, (R)-1-(4-((1-(3-(1,1-difluoro-2-hydroxy-2-methylpropyl)-2-fluorophenyl)ethyl)amino)-2-methyl-8,9-dihydro-7H-cyclopenta[h]quinazolin-6-yl)piperidin-4-ol]
IC50 [1]: 1 to 30 nM | IC50 [2]: 1 to 200 nM | IC50 [3]: 1 to 10 nM

COCC1(O)CCN(c2cc3c(N[C@H](C)c4cccc(C(F)(F)C(C)O)c4F)nc(C)nc3c3c2CCC3)CC1 (single isomer, unassigned) [Compound 72a]
IC50 [1]: 1 to 30 nM | IC50 [2]: 1 to 200 nM | IC50 [3]: 1 to 10 nM

Cc1nc(N[C@H](C)c2cc(N)cc(C(F)(F)F)c2)c2cc(N3CCOCC3)c3c(c2n1)CC(C)(C)O3 [Compound 113, (R)—N-(1-(3-amino-5-(trifluoromethyl)phenyl)ethyl)-2,8,8-trimethyl-6-morpholino-8,9-dihydrofuro[2,3-h]quinazolin-4-amine]
IC50 [1]: 1 to 30 nM | IC50 [2]: 1 to 200 nM | IC50 [3]: 1 to 10 nM

Cc1nc(N[C@H](C)c2cc(N)cc(C(F)(F)F)c2)c2cc(N3CCOCC3=O)c3c(c2n1)CCC3 [Compound 83, (R)-4-(4-((1-(3-amino-5-(trifluoromethyl)phenyl)ethyl)amino)-2-methyl-8,9-dihydro-7H-cyclopenta[h]quinazolin-6-yl)morpholin-3-one]
IC50 [1]: 71 to 130 nM | IC50 [2]: 1 to 200 nM | IC50 [3]: 11 to 20 nM

Cc1nc(N[C@H](C)c2cc(N)cc(C(F)(F)F)c2)c2cc(O[C@H]3CCOC3)c3c(c2n1)CCC3 [Compound 109, N—((R)-1-(3-amino-5-(trifluoromethyl)phenyl)ethyl)-2-methyl-6-(((S)-tetrahydrofuran-3-yl)oxy)-8,9-dihydro-7H-cyclopenta[h]quinazolin-4-amine]
IC50 [2]: 201 to 500 nM | IC50 [3]: 11 to 20 nM

Cc1nc(N[C@H](C)c2cc(N)cc(C(F)(F)F)c2)c2cc(N3CCOCC3)c3c(c2n1)CC(C)O3 (single isomer, unassigned) [Compound 117b]
IC50 [2]: 1 to 200 nM | IC50 [3]: 11 to 20 nM

Cc1nc(N[C@H](C)c2cc(N)cc(C(F)(F)F)c2)c2cc(N3C[C@@H](C)O[C@@H](C)C3)c3c(c2n1)CCC3 [Compound 17, N—((R)-1-(3-amino-5-(trifluoromethyl)phenyl)ethyl)-6-((2S,6R)-2,6-dimethylmorpholino)-2-methyl-8,9-dihydro-7H-cyclopenta[h]quinazolin-4-amine]
IC50 [3]: 11 to 20 nM

COC1CCN(c2cc3c(N[C@H](C)c4cc(N)cc(C(F)(F)F)c4)nc(C)nc3c3c2CCC3)CC1 [Compound 1, (R)—N-(1-(3-amino-5-(trifluoromethyl)phenyl)ethyl)-6-(4-methoxypiperidin-1-yl)-2-methyl-8,9-dihydro-7H-cyclopenta[h]quinazolin-4-amine]
IC50 [2]: 1 to 200 nM | IC50 [3]: 11 to 20 nM

Cc1nc(N[C@H](C)c2cc(N)cc(C(F)(F)F)c2)c2cc(O[C@H]3CCOC3)c3c(c2n1)CC(C)(C)O3 [Compound 112, N—((R)-1-(3-amino-5-(trifluoromethyl)phenyl)ethyl)-2,8,8-trimethyl-6-(((S)-tetrahydrofuran-3-yl)oxy)-8,9-dihydrofuro[2,3-h]quinazolin-4-amine]
IC50 [2]: 1 to 200 nM | IC50 [3]: 11 to 20 nM

Cc1nc(N[C@H](C)c2cc(N)cc(C(F)(F)F)c2)c2cc(N3CC[C@@H](O)C3)c3c(c2n1)CCC3 [Compound 44, (R)-1-(4-(((R)-1-(3-amino-5-(trifluoromethyl)phenyl)ethyl)amino)-2-methyl-8,9-dihydro-7H-cyclopenta[h]quinazolin-6-yl)pyrrolidin-3-ol]
IC50 [2]: 1 to 200 nM | IC50 [3]: 11 to 20 nM

Cc1nc(NC(C)c2cc(N)cc(C(F)F)c2)c2cc(N3CCOCC3)c3c(c2n1)CCC3 (single isomer, unassigned) [Compound 77, (R/S)—N-(1-(3-amino-5-(difluoromethyl)phenyl)ethyl)-2-methyl-6-morpholino-8,9-dihydro-7H-cyclopenta[h]quinazolin-4-amine]
IC50 [2]: 1 to 200 nM | IC50 [3]: 1 to 10 nM

Cc1nc(N[C@H](C)c2cc(N)cc(C(F)(F)F)c2)c2cc(NC3COC3)c3c(c2n1)CCC3 [Compound 28, (R)—N^4-(1-(3-amino-5-(trifluoromethyl)phenyl)ethyl)-2-methyl-N^6-(oxetan-3-yl)-8,9-dihydro-7H-cyclopenta[h]quinazoline-4,6-diamine]
IC50 [1]: 31 to 70 nM | IC50 [3]: 1 to 10 nM

Cc1nc(N[C@H](C)c2cc(N)cc(C(F)(F)F)c2)c2cc(N[C@H]3CCOC3)c3c(c2n1)CCC3 [Compound 19, N^4—((R)-1-(3-amino-5-(trifluoromethyl)phenyl)ethyl)-2-methyl-N^6—((S)-tetrahydrofuran-3-yl)-8,9-dihydro-7H-cyclopenta[h]quinazoline-4,6-diamine]
IC50 [2]: 1 to 200 nM | IC50 [3]: 1 to 10 nM

Cc1nc(N[C@H](C)c2cc(N)cc(C(F)(F)F)c2)c2cc(NC3CCOCC3)c3c(c2n1)CCC3 [Compound 21, (R)—N^4-(1-(3-amino-5-(trifluoromethyl)phenyl)ethyl)-2-methyl-N^6-(tetrahydro-2H-pyran-4-yl)-8,9-dihydro-7H-cyclopenta[h]quinazoline-4,6-diamine]
IC50 [2]: 201 to 500 nM | IC50 [3]: 11 to 20 nM

Cc1nc(N[C@H](C)c2cc(N)cc(C(F)(F)F)c2)c2cc(C3CCN(C)CC3)c3c(c2n1)CCC3 [Compound 101, (R)—N-(1-(3-amino-5-(trifluoromethyl)phenyl)ethyl)-2-methyl-6-(1-methylpiperidin-4-yl)-8,9-dihydro-7H-cyclopenta[h]quinazolin-4-amine]
IC50 [2]: 1 to 200 nM | IC50 [3]: 1 to 10 nM

Cc1nc(N[C@H](C)c2cc(N)cc(C(F)(F)F)c2)c2cc(O[C@H]3CCOC3)c3oc(C)cc3c2n1 [Compound 111]
IC50 [2]: 201 to 500 nM | IC50 [3]: 11 to 20 nM

Cc1cc(N)cc(C(C)Nc2nc(C)nc3c4c(c(N5CC6(COC6)C5)cc23)CCC4)c1 (single isomer, unassigned) [Compound 20, N-(1-(3-amino-5-methylphenyl)ethyl)-2-methyl-6-(2-oxa-6-azaspiro[3.3]heptan-6-yl)-8,9-dihydro-7H-cyclopenta[h]quinazolin-4-amine]
IC50 [2]: 201 to 500 nM | IC50 [3]: 1 to 10 nM

COC[C@H]1CN(c2cc3c(N[C@H](C)c4cc(N)cc(C(F)(F)F)c4)nc(C)nc3c3c2CCC3)CCO1 [Compound 27, N—((R)-1-(3-amino-5-(trifluoromethyl)phenyl)ethyl)-6-((R)-2-(methoxymethyl)morpholino)-2-methyl-8,9-dihydro-7H-cyclopenta[h]quinazolin-4-amine]
IC50 [2]: 1 to 200 nM | IC50 [3]: 1 to 10 nM

COc1cc2c(N[C@H](C)c3cc(N)cc(C(F)(F)F)c3)nc(C)nc2c2c1CCC2 [Compound 108, (R)—N-(1-(3-amino-5-(trifluoromethyl)phenyl)ethyl)-6-methoxy-2-methyl-8,9-dihydro-7H-cyclopenta[h]quinazolin-4-amine]
IC50 [3]: 1 to 10 nM

Reference: patent US12435066B2, “Substituted tricyclic compounds” (LUPIN LIMITED, priority 2019, dated 2025)
